CC50 and IC50 data for 4 compounds are collected here from article doi:10.1101/2020.09.15.275891v2 (biorxiv, 2020).

Data set [1] can be described thus: in vitro. As to conditions: human, caco-2 cells.
Data set [2] concerns the target mature MHV M^pro (Murine hepatitis virus strain A59, UniProt P0C6X9). Briefly: fluorogenic peptide cleavage. The class given is biochemical.
In data set [3] the target is mature SARSCoV2 M^pro (Severe acute respiratory syndrome coronavirus 2, UniProt P0DTD1). Put plainly: biochemical.

mature MHV M^pro, sequence (P0C6X9 3334-3635): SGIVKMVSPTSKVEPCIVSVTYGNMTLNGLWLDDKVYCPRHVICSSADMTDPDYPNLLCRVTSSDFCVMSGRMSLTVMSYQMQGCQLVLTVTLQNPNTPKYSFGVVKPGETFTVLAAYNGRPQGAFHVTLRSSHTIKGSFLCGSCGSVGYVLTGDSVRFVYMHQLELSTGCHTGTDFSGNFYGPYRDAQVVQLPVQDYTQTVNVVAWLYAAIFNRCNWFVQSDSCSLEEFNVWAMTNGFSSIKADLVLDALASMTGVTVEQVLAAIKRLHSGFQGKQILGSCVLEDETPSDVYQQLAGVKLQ

As to `CC(C)C[C@H](NC(=O)OCc1ccccc1)C(=O)N[C@@H](C[C@@H]1CCNC1=O)C(O)S(=O)(=O)O` (some centres unmarked) [GC-376], the half-maximal cytotoxic concentration (CC50) in data set [1] was > 100 µM.
The compound `CC(C)(C)NC(=O)N[C@H](C(=O)N1C[C@H]2[C@@H]([C@H]1C(=O)N[C@@H](C[C@@H]1CCNC1=O)C(=O)C(N)=O)C2(C)C)C(C)(C)C` [ML1000] showed a concentration for half-maximal inhibition (IC50) in data set [2] of 0.13 ± 0.025 µM. Further, the CC50 in data set [1] was > 100 µM.
Consider `CC(C)(C)NC(=O)N[C@H](C(=O)N1C[C@@H]2CCC[C@@H]2[C@H]1C(=O)N[C@@H](C[C@@H]1CCNC1=O)C(=O)C(N)=O)C(C)(C)C` [ML1100], for which the 50% inhibitory concentration (IC50) came out at 0.147 ± 0.008 µM in data set [3] and 0.301 ± 0.152 µM in data set [2]. Besides, the CC50 in data set [1] is > 100 µM.
On to `CC(C)(C)NC(=O)N[C@H](C(=O)N1C[C@H]2[C@@H]([C@H]1C(=O)NC(CC1CCC1)C(=O)C(N)=O)C2(C)C)C(C)(C)C` (some centres unmarked) [boceprevir], for which half-maximal inhibition in data set [2] (IC50) required 15 ± 7 µM. The CC50 in data set [1] is > 100 µM.
